In patent EP1956016A1, “Bicyclic acyltryptophanols” (Bayer Schering Pharma Aktiengesellschaft, priority 2006, dated 2008) one finds IC50 data, which are given here for seven compounds.

The target in the assay is T1, human FSH receptor (Homo sapiens, UniProt P23945).
T1 construct: expressed in transfected cells; host or cells: CHO cells (hFSHR clone 16)
T1 sequence (P23945 18-695): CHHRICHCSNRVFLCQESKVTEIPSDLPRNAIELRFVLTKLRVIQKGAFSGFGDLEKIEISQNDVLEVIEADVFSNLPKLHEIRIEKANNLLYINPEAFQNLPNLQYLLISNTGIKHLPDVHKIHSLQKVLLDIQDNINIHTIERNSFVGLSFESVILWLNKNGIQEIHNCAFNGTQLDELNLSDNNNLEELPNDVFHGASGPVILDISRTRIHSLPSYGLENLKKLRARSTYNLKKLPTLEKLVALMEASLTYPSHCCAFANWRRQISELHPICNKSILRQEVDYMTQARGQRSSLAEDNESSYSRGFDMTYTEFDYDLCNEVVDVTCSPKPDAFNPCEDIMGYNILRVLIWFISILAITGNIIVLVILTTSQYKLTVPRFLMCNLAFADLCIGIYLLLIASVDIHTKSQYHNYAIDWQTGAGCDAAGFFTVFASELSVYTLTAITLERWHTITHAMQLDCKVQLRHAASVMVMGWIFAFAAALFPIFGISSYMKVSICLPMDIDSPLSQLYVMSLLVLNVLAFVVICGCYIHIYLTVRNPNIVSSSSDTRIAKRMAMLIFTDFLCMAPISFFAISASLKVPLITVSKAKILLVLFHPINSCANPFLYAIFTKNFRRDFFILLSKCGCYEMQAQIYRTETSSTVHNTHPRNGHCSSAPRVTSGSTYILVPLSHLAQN
Kind of assay: HTRF assay for measuring cAMP in cells (FSH antagonism). Type of assay: cell-based. Conditions: hFSHR clone 16 cells (CHO cells stably transfected with the human FSH receptor); in the presence of 1 e-9 mol/l hFSH; 37°C for 2h. The protocol: HTRF assay for measuring cAMP in cells
The method is based on a competitive immunoassay between native cAMP, which has been produced by the cells, and cAMP which is labelled with XL665. The tracer binding was visualized by a monoclonal antibody, anti-cAMP labelled with cryptate [HTRF = homogeneous time-resolved fluorescence].
The specific signal is inversely proportional to the cAMP concentration of the samples employed.
The 665nm/ 620nm fluorescence ratio was evaluated.
The following material was used: 96-well plates for the tissue culture, 96-well plates with black edge and black base (e.g. Fluotrac 600 from Greiner), 96-well plates for the substance dilutions of polypropylene and CAMP Femtomolar (4000wells Kit, CIS Bio International # 62AM1PEC).
The following reagents were used: BSA (bovine serum albumin) Fraction V protease-free, IBMX (3-isobutyl-1-methylxanthine), hFSH (human follicle stimulating hormone), Triton X-100 analytical grade, potassium fluoride analytical grade, G 418 (Geneticin) and Accutase.
Buffer 1 (washing and testing buffer) contained PBS, 1 mM CaCl2, 1 mM MgCl2, 0.2% glucose; 0.1% BSA, 1 mM IBMX.
Buffer 2 (2x lysis buffer) contained 1 % Triton X-100 in PBS (without CaCl2 and MgCl2).
Buffer 3 (assay buffer) contained 50 mM potassium phosphate buffer (pH 7.0); 800 mM potassium fluoride; 0.2% BSA (always added fresh).
On day 1, the cells were seeded in 96-well plates (3x10^4 cells per well hFSHR clone 16 cells (CHO cells stably transfected with the human FSH receptor in 150 µl of medium). The next day, test substance dilutions were made up. For this purpose, all the substances were diluted in ice-cold buffer 1 (with or without hFSH), and the substance dilutions were placed on ice until applied to the cells.
The cell supernatant was then aspirated off, and the cells were washed 2x with 200 µl of buffer 1. The cells were treated with 60 µl of the appropriate substance concentrations at 37°C for 2h. The cells were then lysed with 60 µl of buffer 2 (put onto the supernatant) (on a plate shaker at RT for 30 min).
The test conjugates (XL-665 and anti-cAMP cryptate) were diluted in buffer 3 in accordance with the manufacturers' information. The actual mixture for measurement was pipetted into a black 96-well plate (in each case 15 µl of the cell lysate diluted with 35 µl of buffer 1; firstly 25 µl of XL-665 conjugate were pipetted and, after 10 min, 25 µl of the anti-cAMP cryptate were added). This is followed by incubation at RT for 90 minutes. The measurement was carried out in a PheraStar (BMG).
Tissue culture conditions
1) hFSHr clone 16 Ham's F12 PSG 10% FCS 700 µg/ml G 418 (Geneticin) from PAA.
Dose-effect curve (hFSH) for the human receptor: 1 e-8, 3e-9, 1 e-9, 3e-10, 1e-10, 3e-11, 1e-11, 3e-12 mol/l.
The test substances were employed in suitable dilutions in the absence (test for agonism) and in the presence of 1 e-9 mol/l hFSH.
The values of the well ratio were averaged and then entered directly in SigmaPlot versus the concentrations. The maximum and minimum values were determined for each plate, and half the difference is to be regarded as IC50.
(In TR-FRET formats the signal depends on donor and acceptor labels being close together.)
In the case of `CCC1Cc2cc(-c3ccc(OC)c(OC)c3)cc(C(=O)N[C@@H](CO)Cc3c[nH]c4ccccc34)c2O1` (stereo partly drawn) [Example 13, 5-(3,4-Dimethoxy-phenyl)-2-ethyl-2,3-dihydro-benzofuran-7-carboxylic acid [(R)-1-hydroxymethyl-2-(1H-indol-3-yl)-ethyl]-amide], the 50% inhibitory concentration (IC50) (commonly the midpoint of a concentration-inhibition curve) was 150 nM. Consider `COc1cc(-c2cc3c(c(C(=O)N[C@@H](CO)Cc4c[nH]c5ccccc45)c2)OCC3)cc(F)c1F` [Example 20, 5-(3,4-Difluoro-5-methoxy-phenyl)-2,3-dihydro-benzofuran-7-carboxylic acid [(R)-2-hydroxy-1-(1H-indol-3-ylmethyl)-ethyl]-amide], for which the IC50 came to 2000 nM. In the case of `Cc1ccccc1C#Cc1cc2c(c(C(=O)N[C@@H](CO)Cc3c[nH]c4ccccc34)c1)OCC=C2` [Example 4, 6-o-Tolylethynyl-2H-chromene-8-carboxylic acid [(R)-1-hydroxymethyl-2-(1H-indol-3-yl)-ethyl]-amide] it was 450 nM; in that of `CNC(=O)c1cc(F)cc(-c2cc3c(c(C(=O)N[C@@H](CO)Cc4c[nH]c5ccccc45)c2)OC(C)(C)C=C3)c1` [Example 8, 6-(3-Fluoro-5-methylcarbamoyl-phenyl)-2,2-dimethyl-2H-chromene-8-carboxylic acid [(R)-2-hydroxy-1-(1 H-indol-3-yl-methyl)-ethyl]-amide], 14 nM. `C=CC1Cc2cc(-c3ccc(OC)c(OC)c3)cc(C(=O)N[C@@H](CO)Cc3c[nH]c4ccccc34)c2O1` (mixture of isomers) [Example 12, 5-(3,4-Dimethoxy-phenyl)-2-vinyl-2,3-dihydro-benzofuran-7-carboxylic acid [(R)-1-hydroxymethyl-2-(1H-indol-3-yl)-ethyl]-amide]: the concentration for half-maximal inhibition (IC50) was determined as 350 nM. As to `CNC(=O)c1ccc(-c2cc3c(c(C(=O)N[C@@H](CO)Cc4c[nH]c5ccccc45)c2)OCCO3)cc1Cl` [Example 14, 7-(3-Chloro-4-methylcarbamoyl-phenyl)-2,3-dihydro-benzo[1,4]dioxine-5-carboxylic acid [(R)-2-hydroxy-1-(1 H-indol-3-ylmethyl)-ethyl]-amide], the concentration for half-maximal inhibition (IC50) was determined as 450 nM. As to `CNC(=O)c1ccc(-c2cc3c(c(C(=O)N[C@@H](CO)Cc4c[nH]c5ccccc45)c2)OCC=C3)cc1Cl` [Example 2, 6-(3-Chloro-4-methylcarbamoyl-phenyl)-2H-chromene-8-carboxylic acid [(R)-2-hydroxy-1-(1H-indol-3-ylmethyl)-ethyl]-amide], the concentration for half-maximal inhibition (IC50) turned out to be 130 nM.
